Results reported in publication PMC11672551, “Cyclic Ruthenium-Peptide Prodrugs Penetrate the Blood–Brain Barrier and Attack Glioblastoma upon Light Activation in Orthotopic Zebrafish Tumor Models” (ACS Central Science, 2024).

Test system: U87MG tumor cells in zebrafish hindbrain
Test: Tumor targeting in zebrafish embryos, colocalization of drug emission with GFP-U87MG cells in the hindbrain
Type: in vivo
Settings: 2 pmol, line-scan profiles of high-resolution images (Figure S35)
Description: In a second step, the targeting of GBM cells by Ru-p(HH) was tested by detecting the colocalization of the red-emissive drug (excitation: 488 nm; emission detector window: 630–774 nm) with GFP-U87MG cells (excitation: 488 nm; emission: 485–575 nm). To clearly see the distribution of the drug and of the cancer cells in zebrafish, we used Tg(kdrl:mTurquoise)^hu7185Tg embryos. In this transgenic fish line, the blood vessels of the embryos are labeled by the mTurquoise fluorescent protein, which can be excited at 405 nm and emits at 464–480 nm. As shown in Figure 5a and Figure S33a, when only tumor cells were injected into the hindbrain of the zebrafish embryo, GFP was the only signal detected. […] By calculating the distribution and intensity of Ru-p(HH) emission in the region of U87MG cells in the brain, the PCC and MOC values for the top-down view of the hindbrain were determined to be 0.49 and 0.79, respectively, while those in the side images were 0.77 and 0.66 (Figure 5b, Figure S33b).
Figure 5 Targeting a U87MG brain tumor with Ru-p(HH)in vivo. […] The Z-axis is the cell fluorescence intensity (green) and the drug fluorescence intensity (purple). […] Both PCC and MOC are calculated and are shown in the graph. […]

Question: How did the “MOC between prodrug and tumor, comparison with RGD-free control” value turn out when [Ru(Ph2phen)2(bpy)]Cl2 was run?
Answer: 0.35

Question: And the “PCC between prodrug and tumor, comparison with RGD-free control” value?
Answer: −0.2
